Values of other authors in patent US6746697B2, “Composition containing Heliopsis longipes root extract and oral carrier” (Phytos, Inc., priority 2000, dated 2004).

Tests used:
[1] = system: certain microorganisms (Gram positive and Gram negative bacteria); details: purified affinin from ethanol extract; toxicity varying for Gram positive and Gram negative bacteria
[2] = system: mice; details: orally to mice

C/C=C/C=C\CC/C=C/C(=O)NCC(C)C [affinin, N-isobutyl-2E, 6Z, 8E-decatrienamide]
toxicity to microorganisms [1]: toxic to certain microorganisms
analgesic effect ([2]; aqueous solution, doses from 2.5 to 10.0 mg/kg): analgesic effect
deaths ([2]; highest dose (10.0 mg/kg)): two out of five deaths
effect on normal motor activity ([2]; highest dose (10.0 mg/kg)): severe depression of normal motor activity
